Data as given in patent US12491253B2, “Bicyclic peptide ligands specific for MT1-MMP” (BicycleRD Limited, priority 2018, dated 2025).

Molecular target: MT1-MMP hemopexin domain (Homo sapiens, UniProt P50281)
Conditions: Human MT1-MMP FP direct binding; fluoresceinated bicyclic peptide titrated with hemopexin domain; molecular scaffold TBMB
Protocol: Direct Binding Fluorescence Polarisation or Anisotropy Assays are performed by titrating a constant concentration of fluorescent tracer (here, the fluoresceinated bicyclic peptide to be studied) with its binding partner (here, the MT1-MMP hemopexin domain). As the concentration of binding partner increases during the titration, the polarisation signal changes in proportion to the fraction of bound and unbound material. This allows determination of […] (Kd) quantitatively. Assay data can be fit using standard ligand binding equations.
The titrant (binding partner) concentration is varied from 0.1 nM up to typically 5 μM. The range is chosen such that the maximum change in fluorescent polarisation can be observed. Buffers employed are phosphate buffered saline in the presence of 0.01% Tween. Experiments were run in black 384 well low-bind/low volume plates (Corning 3820), and the fluorescent polarisation signal was measured using a BMG Pherastar FS plate reader. […] Fluoresceination may be performed on the N-terminal amino group of the peptide, which is separated from the bicycle core sequence by a sarcosine spacer (usually Sar5). This can be done during Fmoc solid phase synthesis or post-synthetically (after cyclisation with TBMB and purification) if the N-terminal amino group is unique to the peptide. Fluoresceination can also be performed on the C-terminus, usually on a Lysine introduced as the first C-terminal residue, which is then separated from the bicycle core sequence by a sarcosine spacer (usually Sar6). Thus, N-terminal tracers can have a molecular format described as Fluo-Gly-Sar6-A (BicycleCoreSequence), and (BicycleCoreSequence)-A-Sar6-K(Fluo) for a C-terminally fluoresceinated construct.
Fluorescent tracers used in the Examples include BCY1323-Sar6-K(FI), BCY1326-Sar6-K(FI), BCY3418-Sar6-K(FI), BCY3422-K(FI), and BCY1329-Sar6-K(FI).

Question: How did the Kd turn out when “fluoresceinated bicyclic peptide tracer on TBMB, used as BCY1326-Sar6-K(FI); sequence not given” was run?
Answer: The Kd was 0.218 µM.

Question: How did the Kd turn out when “fluoresceinated bicyclic peptide tracer on TBMB, used as BCY1323-Sar6-K(FI); sequence not given” was run?
Answer: The Kd was 0.0359 ± 0.00665 µM.

Question: Which Kd does the source give for “fluoresceinated bicyclic peptide tracer on TBMB, used as BCY1329-Sar6-K(FI); sequence not given” here?
Answer: The Kd was 0.0221 ± 0.011 µM.
